The data set deals with CCRIS mutagenicity, Ames/micronucleus/aberration tests. Kind of data set: CCRIS mutagenicity studies.
The mark [1] stands for this setting: Test System: AMES SALMONELLA TYPHIMURIUM, Strain/Indicator: TA98, Metabolic Activation: NONE, Method: PREINCUBATION
The mark [2] stands for this setting: Test System: AMES SALMONELLA TYPHIMURIUM, Strain/Indicator: TA98, Metabolic Activation: NONE, Method: STANDARD PLATE.
[3] abbreviates: Test System: AMES SALMONELLA TYPHIMURIUM, Strain/Indicator: TA98, Metabolic Activation: RAT, LIVER, S-9, AROCLOR 1254 (10%), Method: PREINCUBATION
Setting [4] is: Test System: AMES SALMONELLA TYPHIMURIUM, Strain/Indicator: TA98, Metabolic Activation: RAT, LIVER, S-9, AROCLOR 1254, Method: STANDARD PLATE.
[5] abbreviates: Test System: AMES SALMONELLA TYPHIMURIUM, Strain/Indicator: TA100, Metabolic Activation: NONE, Method: PREINCUBATION
The mark [6] stands for this setting: Test System: AMES SALMONELLA TYPHIMURIUM, Strain/Indicator: TA100, Metabolic Activation: RAT, LIVER, S-9, AROCLOR 1254 (10%), Method: PREINCUBATION

Entries after “also recorded” stand apart in the source; their conditions may differ. Activity calls are given as the source filed them. The rule behind the calls is not given here.

As for `O=[N+]([O-])c1ccc2cc3ccccc3cc2c1`, the mutagenic call by setting is: under setting [1], “active; positive”; under setting [2], “active; positive”; under setting [3], “active; positive”; under setting [4], “active; positive”; under setting [5], “active; positive”; under setting [6], “active; positive”.

As to `CN(C)c1ccc(/C=C/c2ccc([N+](=O)[O-])cc2)cc1`, the mutagenic call (Test System: AMES SALMONELLA TYPHIMURIUM, Strain/Indicator: TA98, Metabolic Activation: HAMSTER, LIVER, S-9, AROCLOR 1254 (10%), Method: STANDARD PLATE) was “active; positive”; the mutagenic call under setting [2] was “inactive; negative”; the mutagenic call (Test System: AMES SALMONELLA TYPHIMURIUM, Strain/Indicator: TA98, Metabolic Activation: RAT, LIVER, S-9, AROCLOR 1254 (10%), Method: STANDARD PLATE) is “active; positive”; the mutagenic call (Test System: AMES SALMONELLA TYPHIMURIUM, Strain/Indicator: TA100, Metabolic Activation: HAMSTER, LIVER, S-9, AROCLOR 1254 (10%), Method: STANDARD PLATE) is “active; positive”; the mutagenic call (Test System: AMES SALMONELLA TYPHIMURIUM, Strain/Indicator: TA100, Metabolic Activation: NONE, Method: STANDARD PLATE) is “inactive; negative”; the mutagenic call (Test System: AMES SALMONELLA TYPHIMURIUM, Strain/Indicator: TA100, Metabolic Activation: RAT, LIVER, S-9, AROCLOR 1254 (10%), Method: STANDARD PLATE) is “active; positive”. The mutagenic call (Test System: MOUSE LYMPHOMA, Strain/Indicator: L5178Y (TK+/TK-), Metabolic Activation: NONE, Method: SUSPENSION/PLATE) was “inactive; negative” and the mutagenic call (Test System: MOUSE LYMPHOMA, Strain/Indicator: L5178Y (TK+/TK-), Metabolic Activation: RAT, LIVER, S-9, AROCLOR 1254, Method: SUSPENSION/PLATE) is “active; positive. reevaluation of results: positive”.

As to `c12c3c4c5c1c1c6c7c2c2c8c3c3c9c4c4c%10c5c5c1c1c6c6c%11c7c2c2c7c8c3c3c8c9c4c4c9c%10c5c5c1c1c6c6c%11c2c2c7c3c3c8c4c4c9c5c1c1c6c2c3c41`, the mutagenic call (End Point: In vitro chromosomal aberrations, Test System: Chinese hamster lung (CHL/IU) cells, Metabolic Activation: None) is “inactive; negative”; the mutagenic call (End Point: In vitro chromosomal aberrations, Test System: Chinese hamster lung (CHL/IU) cells, Metabolic Activation: S-9) is “inactive; negative”; the mutagenic call (End Point: In vitro micronucleus, Test System: Chinese hamster ovary (CHO) cells, Metabolic Activation: None) is “active; positive (material tested was fullerol, c60(oh)24); also recorded: active; positive; actual chemical tested was hydroxyl fullerene c-60”; the mutagenic call (End Point: In vitro micronucleus, Test System: Human Hela cells, Metabolic Activation: None) was “active; positive (material tested was fullerol, c60(oh)24)”; the mutagenic call (End Point: In vitro micronucleus, Test System: Human embryonic kidney 293 (HEK293) cells, Metabolic Activation: None) was “inactive; negative; actual chemical tested was hydroxyl fullerene c-60”; the mutagenic call (End Point: In vitro micronucleus, Test System: Human embryonic kidney cells (HEK 293), Metabolic Activation: None) is “active; positive (material tested was fullerol, c60(oh)24)”. In addition, the mutagenic call is “inactive; negative; actual chemical tested was hydroxyl fullerene c-60” (End Point: In vitro micronucleus, Test System: Human epidermoid-like carcinoma (Hela) cells, Metabolic Activation: None); “inactive; negative” (Test System: Ames Salmonella typhimurium, Strain/Indicator: TA98, Metabolic Activation: None, Method: Preincubation); “inactive; negative” (Test System: Ames Salmonella typhimurium, Strain/Indicator: TA98, Metabolic Activation: S-9, Method: Preincubation); “inactive; negative” (Test System: Ames Salmonella typhimurium, Strain/Indicator: TA100, Metabolic Activation: None, Method: Preincubation); “inactive; negative” (Test System: Ames Salmonella typhimurium, Strain/Indicator: TA100, Metabolic Activation: S-9, Method: Preincubation); “inactive; negative” (Test System: Ames Salmonella typhimurium, Strain/Indicator: TA1535, Metabolic Activation: None, Method: Preincubation). Further, the mutagenic call is “inactive; negative” (Test System: Ames Salmonella typhimurium, Strain/Indicator: TA1535, Metabolic Activation: S-9, Method: Preincubation); “inactive; negative” (Test System: Ames Salmonella typhimurium, Strain/Indicator: TA1537, Metabolic Activation: None, Method: Preincubation); “inactive; negative” (Test System: Ames Salmonella typhimurium, Strain/Indicator: TA1537, Metabolic Activation: S-9, Method: Preincubation); “inactive; negative” (Test System: E. coli, Strain/Indicator: WP2 uvrA/pKM101, Metabolic Activation: None, Method: Preincubation); “inactive; negative” (Test System: E. coli, Strain/Indicator: WP2 uvrA/pKM101, Metabolic Activation: S-9, Method: Preincubation); “active; positive” (Test System: Gpt delta transgenic mouse primary embryo fibroblasts (MEF), Strain/Indicator: Red/gam gene mutants, Metabolic Activation: None, Method: Spi- mutation assay).

Regarding `CC(=O)ON(C(C)=O)c1ccc(/C=C\c2ccccc2)cc1`, the mutagenic call is “active; positive” (Test System: UDS HUMAN CELLS, Strain/Indicator: THY INCORP (NON-S-PHASE), Metabolic Activation: NONE, Method: LIQUID SCINTILLATION COUNTING) and “active; positive” (Test System: UDS HUMAN FIBROBLASTS, Strain/Indicator: THY INCORP (NON-S-PHASE), Metabolic Activation: NONE, Method: AUTORADIOGRAPHY).

With `O=[N+]([O-])c1cnc2c(c1)nc1ccccn12`, the mutagenic call by setting is: under setting [2], “active; positive”; (Test System: AMES SALMONELLA TYPHIMURIUM, Strain/Indicator: TA98, Metabolic Activation: RAT, LIVER, CYTOSOL, AROCLOR 1254, Method: STANDARD PLATE) “active; positive”; (Test System: AMES SALMONELLA TYPHIMURIUM, Strain/Indicator: TA98, Metabolic Activation: RAT, LIVER, MICROSOMES, AROCLOR 1254, Method: STANDARD PLATE) “active; positive”; under setting [4], “active; positive”.

Take `CC(C)CCC(C)Nc1ccc(NC(C)CCC(C)C)cc1` (centres undefined): the mutagenic call is, setting by setting: (Test System: AMES SALMONELLA TYPHIMURIUM, Strain/Indicator: TA98, Metabolic Activation: HAMSTER, LIVER, S-9, AROCLOR 1254 (10%), Method: PREINCUBATION) “inactive; negative”; under setting [1], “inactive; negative”; under setting [3], “inactive; negative”; (Test System: AMES SALMONELLA TYPHIMURIUM, Strain/Indicator: TA100, Metabolic Activation: HAMSTER, LIVER, S-9, AROCLOR 1254 (10%), Method: PREINCUBATION) “inactive; negative”; under setting [5], “inactive; negative”; under setting [6], “inactive; negative”. Also, the mutagenic call (Test System: AMES SALMONELLA TYPHIMURIUM, Strain/Indicator: TA1535, Metabolic Activation: HAMSTER, LIVER, S-9, AROCLOR 1254 (10%), Method: PREINCUBATION) was “inactive; negative”; the mutagenic call (Test System: AMES SALMONELLA TYPHIMURIUM, Strain/Indicator: TA1535, Metabolic Activation: NONE, Method: PREINCUBATION) was “inactive; negative”; the mutagenic call (Test System: AMES SALMONELLA TYPHIMURIUM, Strain/Indicator: TA1535, Metabolic Activation: RAT, LIVER, S-9, AROCLOR 1254 (10%), Method: PREINCUBATION) was “inactive; negative”; the mutagenic call (Test System: AMES SALMONELLA TYPHIMURIUM, Strain/Indicator: TA1537, Metabolic Activation: HAMSTER, LIVER, S-9, AROCLOR 1254 (10%), Method: PREINCUBATION) was “inactive; negative”; the mutagenic call (Test System: AMES SALMONELLA TYPHIMURIUM, Strain/Indicator: TA1537, Metabolic Activation: NONE, Method: PREINCUBATION) is “inactive; negative”; the mutagenic call (Test System: AMES SALMONELLA TYPHIMURIUM, Strain/Indicator: TA1537, Metabolic Activation: RAT, LIVER, S-9, AROCLOR 1254 (10%), Method: PREINCUBATION) is “inactive; negative”.

As for `Cc1ccc(N)cc1N=[N+]([O-])c1cc(N)ccc1C`, the mutagenic call (Test System: AMES SALMONELLA TYPHIMURIUM, Strain/Indicator: TA98, Metabolic Activation: NONE, Method: SUSPENSION/PLATE) was “inactive; negative”; the mutagenic call (Test System: AMES SALMONELLA TYPHIMURIUM, Strain/Indicator: TA98, Metabolic Activation: RAT, LIVER, S-9, PHENOBARBITAL AND 5,6-BENZOFLAVONE, Method: SUSPENSION/PLATE) was “inactive; negative”; the mutagenic call (Test System: AMES SALMONELLA TYPHIMURIUM, Strain/Indicator: TA100, Metabolic Activation: NONE, Method: SUSPENSION/PLATE) is “inactive; negative”; the mutagenic call (Test System: AMES SALMONELLA TYPHIMURIUM, Strain/Indicator: TA100, Metabolic Activation: RAT, LIVER, S-9, PHENOBARBITAL AND 5,6-BENZOFLAVONE, Method: SUSPENSION/PLATE) is “active; positive”.

The values above are taken from PubChem BioAssay AID1259407 (Chemical Carcinogenesis Research Information System (CCRIS), 2018).
